“Also recorded” adds a separate entry of the source.
Legend:
HRas^G12V [1] = molecular target: T1, HRas^G12V (Homo sapiens (Human), UniProt P01112, G12V); assay: Overall binding/activity in the various assays (NMR consensus binding)
Protocol: Since the fragment library was curated using phosphate buffer, 25 mM sodium phosphate pH 7.4, 150 mM NaCl, 5 mM MgCl2, 1 mM TCEP-d16, 10% D2O Fresh TCEP was used for experiments. Screening was performed using ^1H-decoupled 1D ^19F experiment Bruker experiment (zgfhigqn.2) with 64 scans and a relaxation delay of 5 seconds. 50 μM HRas^G12V and 240 μM of each fragment in pools (mixtures) were used.
Hit confirmation was performed using the same ^19F experiment as the screen. Ligand-observed 1D ^1H, protein-observed 1D ^1H, ^1H T2-CPMG as well as Saturation Transfer Difference (STD) experiments were also run on the same samples. Ligand-observed 1D ^1H was run using the standard Bruker sequence with excitation sculpting (zgesgp) with a relaxation delay of 10 seconds and 16 scans per spectrum. Protein-observed 1D ^1H was performed using the same sequence with a relaxation delay of 1 second and 256 scans in order to increase the signal-to-noise of the protein resonances, while keeping the experimental time relatively short. The ^1H T2-CPMG experiment employed a modified version of the Bruker 1D ^1H zgesgp experiment with the addition of a CPMG pulse train after the first 90° excitation pulse. Total duration for each spin echo was fixed at 1 ms (τ=500 μs), while the number of echoes in the pulse train was varied according to the total time (T). The number of scans for each spectrum was 4 and eight delay times were run on each sample, ranging from 1 ms to 800 ms.
STD experiments consisted of two independent spectra with offsets of 0 ppm (on resonance) and −20 ppm (off resonance). […] 160 scans were acquired for each spectrum.
The results obtained with the compounds in the various assays described above are depicted in Table 21.
Because of its power to probe the intrinsically weak interactions (Kd) between targets and low-molecular weight fragments, NMR fragment-based lead discovery (FBLD) is a very useful biophysical method in early stage drug discovery, especially for challenging target proteins; including those with shallow binding pockets. Since FBLD screens are performed using low-molecular weight compounds (fragments) with lower structural complexity, the same chemical space can be covered using a smaller number of drug-like fragments versus use of large libraries of higher-molecular weight lead-like compounds as in high throughput screening (HTS) campaigns. Therefore, FBLD has a much higher hit rate than HTS using only several hundred to several thousand compounds in comparison with approximately 1 million compounds for HTS. Also, the small size of the compounds screened in FBLD means a better chance to fully match the interactions with small or transient pockets within the target protein, where these less tractable pockets cannot be accessed with standard classical HTS methods. […] We expect this methodology to be more advantageous than classical HTS methods for expediting the time from hit to lead (H2L) and allows for rapid access to high quality leads with lower attrition rates in subsequent lead optimization (LO) campaigns toward pre-clinical candidate selection. FBLD screening by NMR involves a “consensus binding” approach where several distinct NMR experiments (DLB, STD, CPMG) are applied along with a free-state aggregation detection method (T2-CPMG) to rank the compounds for their affinity to the receptor (HRAS in this case) whilst simultaneously monitoring the solution behavior and critical quality attributes of each compound. The latter helps to eliminate artifact binders which are highly problematic. We performed a fluorine screen involving 461 compounds that were derived from a highly curated fragment library. Moreover, two-dimensional ^15N HSQC NMR was also used to validate ligand-binding sites on the target protein. In addition, we employed protein-detected biophysical measurements were employed to determine fragment binding affinities to the target protein (Kd) by HSQC NMR. […]

HRas^G12V [2] = molecular target: T1, HRas^G12V; assay: 19F DLB (ligand-observed 19F NMR) score; format: binding; parameters: scale not given here
Method in brief: (§1)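 Fragments were pooled at 240 μM each with 50 μM HRas G12V in 25 mM sodium phosphate pH 7.4, 150 mM NaCl, 5 mM MgCl2, 1 mM TCEP-d16, 10% D2O, and screened by 1H-decoupled 1D 19F NMR at 600 MHz (64 scans, 5 s relaxation delay). T2-CPMG data were collected with 1 ms echoes and eight delays from 1 to 800 ms.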

HRas^G12V [3] = molecular target: T1, HRas^G12V; assay: 19F T2-CPMG NMR score; format: binding
Method in brief: as §1

Row | SMILES | Activity ranking on HRas^G12V (in words) (HRas^G12V [1]) | 19F DLB Score (HRas^G12V [2]) | 19F T2-CPMG Score (HRas^G12V [3]) | Binding to HRas^G12V (in words) (HRas^G12V [1])
1 | O=C(O)C[C@@H](c1ccccc1F)c1c[nH]c2cc(F)ccc12 (single isomer, unassigned) [Compound 11053] | More active; also recorded: Most active | 2.29 | 25.91 | 
2 | O=C(Cc1ccc(F)cc1)NCCc1c[nH]c2cc(F)ccc12 [Compound 10012] |  | 1.32 | 3.96 | low or no binding
3 | O=C(Cc1c[nH]c2cc(F)ccc12)NCCN1CCOCC1 [Compound 10015] |  | 1.57 | 7.79 | low or no binding
4 | O=C(NCCc1c[nH]c2cc(F)ccc12)[C@@H]1CCCO1 [Compound 10023, (S)—N-(2-(6-fluoro-1H-indol-3-yl)ethyl) tetrahydrofuran-2-carboxamide] |  | 1.53 | 6.9 | low or no binding
5 | Cn1cc(CC(=O)N2CCC2)c2ccc(F)cc21 [Compound 10024, 1-(azetidin-1-yl)-2-(6-fluoro-1-methyl-1H-indol-3-yl) ethan-1-one] |  | 1.06 | 0.01 | low or no binding
6 | CN1CCC[C@@H]1C(=O)NCCc1c[nH]c2cc(F)ccc12 [Compound 10028] |  | 1.01 | 1.61 | low or no binding
7 | O=C(Cc1c[nH]c2cc(F)ccc12)NCCc1cccnc1 [Compound 10029] |  | 1.19 | 1.2 | low or no binding
8 | O=C(Cc1c[nH]c2cc(F)ccc12)NCCc1ccc(F)cc1 [Compound 10031] |  | 1.13 | 1.34 | low or no binding
9 | CCOC(=O)c1ccc(NC(=O)Cc2c[nH]c3cc(F)ccc23)c(C)c1 [Compound 10034] |  | 1.6 | −8.2 | low or no binding
10 | CN1CCC[C@H]1C(=O)NCCc1c[nH]c2cc(F)ccc12 [Compound 10036] |  | 1.22 | 2.32 | low or no binding
11 | CCOC(=O)[C@@H](C)NC(=O)Cc1c[nH]c2cc(F)ccc12 [Compound 10037] |  | 1.25 | 4.07 | low or no binding
12 | CCOC(=O)[C@H](C)NC(=O)Cc1c[nH]c2cc(F)ccc12 [Compound 10038] |  | 1.1 | 2.19 | low or no binding
13 | CC(=O)N1CCC[C@@H]1C(=O)NCCc1c[nH]c2cc(F)ccc12 [Compound 10044] |  | 1.07 | 0.95 | low or no binding
14 | CC(=O)N1CCC[C@H]1C(=O)NCCc1c[nH]c2cc(F)ccc12 [Compound 10045] |  | 1.1 | 1.13 | low or no binding
15 | O=S(=O)(NCCc1c[nH]c2cc(F)ccc12)c1ccc(F)cc1 [Compound 10046] |  | 1.02 | 0.79 | low or no binding
16 | Fc1ccc2c(CCNCCc3c[nH]c4cc(F)ccc34)c[nH]c2c1 [Compound 10047, Bis(2-(6-fluoro-1H-indol-3-yl)ethyl)amine] |  | 1.19 | 3.38 | low or no binding

Row | SMILES | Activity ranking on HRas^G12V (in words) (HRas^G12V [1]) | 19F DLB Score (HRas^G12V [2]) | 19F T2-CPMG Score (HRas^G12V [3]) | Binding to HRas^G12V (in words) (HRas^G12V [1])
17 | CC(C)(C(=O)N1CCC1)c1c[nH]c2cc(F)ccc12 [Compound 10049, 1-(azetidin-1-yl)-2-(6-fluoro-1H-indol-3-yl)-2-methylpropan-1-one] |  | 1.43 | 3.53 | low or no binding
18 | CCOC(=O)CNC(=O)Cc1c[nH]c2cc(F)ccc12 [Compound 10050] |  | 1.22 | 2.95 | low or no binding
19 | CC(C)(CNC(=O)Cc1c[nH]c2cc(F)ccc12)C(=O)O [Compound 10062] |  | 1.07 | 1.59 | low or no binding
20 | O=C(NCCc1c[nH]c2cc(F)ccc12)C1CCOC1 (stereo not shown) [Compound 10063] |  | 1.1 | 2.82 | low or no binding
21 | CCN(CC)CC(=O)NCCc1c[nH]c2cc(F)ccc12 [Compound 10064] |  | 1.16 | 1.74 | low or no binding
22 | O=C(Cc1c[nH]c2ccccc12)Nc1ccc(F)cc1 [Compound 10067] |  | 1.2 | 2.15 | low or no binding
23 | O=C(Cc1c[nH]c2cc(F)ccc12)N[C@H]1CCOC1 [Compound 10070] |  | 1.46 | 5.56 | low or no binding
24 | O=C(Cc1c[nH]c2cc(F)ccc12)N[C@@H]1CCOC1 [Compound 10071] |  | 1.35 | 4.49 | low or no binding
25 | CC(=O)N1CCC[C@H](NC(=O)Cc2c[nH]c3cc(F)ccc23)C1 [Compound 10073, (S)—N-(1-acetylpiperidin-3-yl)-2-(6-fluoro-1H-indol-3-yl)acetamide] |  | 1.17 | 2.3 | low or no binding
26 | CC(=O)N1CCC[C@@H](NC(=O)Cc2c[nH]c3cc(F)ccc23)C1 [Compound 10074] |  | 1.23 | 3.48 | low or no binding
27 | Cc1[nH]c2cc(F)ccc2c1CC(=O)N1CCC1 [Compound 10077, 1-(azetidin-1-yl)-2-(6-fluoro-2-methyl-1H-indol-3-yl)ethan-1-one] |  | 0.96 | 0.41 | low or no binding
28 | CCOC(=O)[C@@H](NC(=O)Cc1c[nH]c2cc(F)ccc12)C(C)C [Compound 10079, Ethyl (2-(6-fluoro-1H-indol-3-yl)acetyl)valinate] |  | 1.23 | 2.25 | low or no binding
29 | COCC(=O)Nc1cccc(NC(=O)Cc2c[nH]c3cc(F)ccc23)c1 [Compound 10080, 2-(6-fluoro-1H-indol-3-yl)-N-(3-(2-methoxyacetamido)phenyl)acetamide] |  | 2.67 | −1.66 | low or no binding
30 | CS(=O)(=O)NCCC(=O)NCCc1c[nH]c2cc(F)ccc12 [Compound 10082, N-(2-(6-fluoro-1H-indol-3-yl)ethyl)-3-(methylsulfonamido)propanamide] |  | 1.22 | 2.61 | low or no binding
31 | O=C(O)CC(c1ccc(O)cc1)c1c[nH]c2cc(F)ccc12 (stereo not shown) [Compound 11055] | More active | Non conclusive |  | 
32 | CC1(C)OC(=O)C(C(c2ccc(F)cc2F)c2c[nH]c3cc(F)ccc23)C(=O)O1 (stereo not shown) [Compound 11058] |  | Non conclusive |  | low or no binding

From patent US20240408064A1, “RAS INHIBITORS, COMPOSITIONS AND METHODS OF USE THEREOF” (GENETOLEAD INC., priority 2021, published 2024)
